# Read-outs that look alike come from different tables or passages of the source.
# Tests used:
# [1] = system: DH5α E. coli; assay: MIC against DH5α E. coli; format: cell-based; details: Escherichia coli, no additional antimicrobial; MICs in table limited to […]; read-out: Minimum inhibitory concentration against DH5α E. coli
# [2] = system: K12 E. coli; assay: MIC against K12 E. coli; format: cell-based; details: Escherichia coli
# [3] = system: DH5α E. coli; set-up: method as in PMID 15858645; details: free bases, previously reported data; cited from earlier work
# [4] = system: Escherichia coli; details: administered with ½ MIC of C8LE; earlier work, no reference given; cited from earlier work
# [5] = Turbidimetric solubility limit in MHII or PBS; format: physicochemical; details: DMSO ≤0.5%
# [6] = system: Tet^R E. coli; assay: MIC against Tet^R E. coli; format: cell-based; details: for MIC: Escherichia coli, read-out: MIC Tet^R E. coli
# [7] = system: S. aureus 1199B; assay: MIC against S. aureus 1199B; format: cell-based, Staphylococcus aureus
# [8] = system: S. aureus; assay: MIC against S. aureus under various pH and media conditions; format: cell-based, Staphylococcus aureus; details: for Change in MIC as the pH was increased from 6.4 to 8.4: S. aureus, Mueller Hinton medium
# [9] = system: human embryonic kidney (HEK-293) cells; assay: Cytotoxicity against HEK-293 cells; format: cell-based; details: Homo sapiens, HEK293, percentage survival, three independent trials
# Text: (§1) The potential toxicity of 1–6 is a critical factor in their application either as an antimicrobial or an adjuvant. In vitro toxicity studies were therefore conducted using human embryonic kidney (HEK-293) and simian kidney (COS-7) cells. The graphs shown in Figure 20 show the percentage survival of each cell type as a function of lariat ether concentration on the logarithmic x-axis. In each graph, the IC50 value is specified for each compound and cell type. The value of IC50 is the concentration of lariat ether that inhibits the growth of 50% of the cells studied.
# (§2) The cytotoxicity experiments were conducted as described in [44].
# [10] = system: simian kidney (COS-7) cells; assay: Cytotoxicity against COS-7 cells; format: cell-based; details: Chlorocebus aethiops, COS-7, percentage survival, three independent trials
# Text: as §1, §2
# [11] = target: T1, NorA efflux pumps in S. aureus 1199B (Staphylococcus aureus, UniProt P0A0J7); assay: Efflux pump inhibition (EthBr accumulation); format: cell-based; set-up: Efflux pump inhibition (increase in EthBr fluorescence): dose or concentration left out as unconfirmed
# T1 construct: Increase in EthBr fluorescence observed by its accumulation in S. aureus 1199B cytosol; endogenous in cells; host or cells: Staphylococcus aureus 1199B (whole bacteria)
# Text: An important reason for the choice of S. aureus 1199B for study is that its resistance to norfloxacin is known to result from the presence of the Nor A efflux pump. Efflux pumps require regulated ion balance to function so that exogeneous substances such as antibacterials can effectively be ejected. Ethidium bromide (EthBr) can penetrate bacteria and is detectable by its fluorescence. To the extent that ion homeostasis is disrupted, ion balance is deregulated, and efflux pump function is compromised or inhibited.
# Experimental details have been reported in [44].
# [12] = system: S. aureus; assay: Membrane depolarization by DiBAC4(3) fluorescence; format: cell-based, Staphylococcus aureus; details: compound at ½ MIC
# Experimental: Disruption of ion homeostasis by 1–6 should be apparent in the associated membrane depolarization. […] The dye is readily absorbed by bacteria owing to the negative internal potential. Disruption of ion homeostasis will affect both proton and potassium cation regulation. The internalized, self-quenched dye will be released and increased fluorescence will be observed.
# Two types of experiments were performed to assess membrane depolarization. […] If ion homeostasis is affected by the presence of any of these compounds, the fluorescent response should increase as the lariat ether concentration increased.
# A second series of experiments was performed to determine the relationship of disrupted ion homeostasis, as reflected in membrane depolarization with cellular vitality (Figure 17). […] Alamar blue (see above) was used to determine cell viability. No depolarization was apparent in the S. aureus control in the absence of a lariat ether or lariat ether derivative. Depolarization was greatest for C10LE•MeI (3). […] We note that the MIC values for S. aureus observed for 2, 3, 5, and 6 were similar.
# The membrane depolarization study was conducted as described in [48].
# [13] = system: S. aureus (1199B); assay: Membrane permeability (propidium iodide / alamar blue); format: cell-based, Staphylococcus aureus; details: compound at ½ MIC
# Experimental: Membrane permeability was assessed by using the dyes propidium iodide and alamar blue. […] However, when PI does enter a cell, it intercalates within the DNA structure. […] When intercalation occurs, a strong fluorescent emission can be detected. Alamar blue, based on resazurin, is a nontoxic weakly fluorescent dye that is sensitive to reduction potential within vital cells. When reduced, it is converted into highly fluorescent resorufin (7-hydroxy-3H-phenoxazin-3-one).
# The combination of alamar blue and propidium iodide allowed us to assess the membrane permeability of S. aureus while confirming cellular vitality. Results of the PI/alamar blue studies with S. aureus are summarized in the graph of Figure 5. When S. aureus (1199B) was exposed to the two dyes, penetration of PI was relatively low and cellular vitality remained high. […] In general, cellular penetration and vitality correlated.
# Membrane permeability studies were conducted as detailed in [48].
# [14] = Planar bilayer voltage clamp; details: 70 mV, KCl 450 mM, HEPES 10 mM, pH 7
# Text: This compound was therefore converted into its bis(methiodide) to form C11LE•2MeI (8). It is clear from the trace shown that only spiking behavior was observed and a large opening eventually emerged. […] The formation of a large opening in the membrane comports with the expectation of increased permeability. Such an opening is also in accord with the observation (see above) of depolarization of bacterial membranes.
# Figure 18 Planar bilayer voltage clamp trace for C11LE•2MeI (8) at 70 mV. Axes: Y = millivolts and X axis = 10 s per section. Conditions: soybean asolectin membrane, KCl (450 mm) buffer solution (HEPES, 10 mm, pH 7).
# The planar bilayer experiments were conducted as described previously.
# [15] = Dynamic light scattering of C12LE aggregation; format: physicochemical; details: water, in the presence of the antimicrobial or C12LE alone
# Experimental: It is known that dialkyldiazacrowns form stable aggregates in aqueous solution [57, 62]. It was hypothesized that complexation between antimicrobials and macrocycles would alter or prevent the ability of the complex to form aggregates. […] Indeed, the particle sizes observed when chlortetracycline is present was almost indistinguishable from particle formation by C12LE (4) alone.
# Measurements were performed on a Brookhaven Instruments Corp. ZetaPALS instrument at 25 °C using a 660 nm laser and correlating scattering at 90°. Samples were prepared by initially dissolving the amphiphile in filtered DMSO obtained from ThermoFisher. Next, they were diluted into 1× PBS such that DMSO was fixed at 0.5% in 15 mL sterile conical tubes. 10× PBS was obtained commercially, then diluted 10-fold in MQ H2O. The mixture was vortexed and incubated at room temperature for 2 h, then transferred to a clean quartz cuvette and equilibrated in the instrument for 10 min at 25 °C. Ten measurements consisting of 2 min runs were made on each sample. The average effective diameter was calculated with standard error reported for at least three trials.
# [16] = system: S. aureus 1199B; assay: Growth curves; format: cell-based, Staphylococcus aureus; details: ½ MIC, OD600 over 24 h
# Experimental: In the studies above, 1–6 were administered at ½ MIC concentrations. At these concentrations, no toxic effect of the compound on cells was anticipated. In order to confirm the effect of compound concentration on S. aureus viability, growth curves were conducted for each compound. In all cases, S. aureus alone was used as control. For the three C10LE compounds (1–3), 32 µM and 64 µM concentrations of norfloxacin were added to the norfloxacin-resistant S. aureus strain as an additional control. The concentration ranges for each of compounds 1–6 varied with their potencies.
# The determination of growth curves was performed against S. aureus 1199B, which is norfloxacin resistant at 32 µM. Norfloxacin was used at 64 µM as a control. The compounds tested were 1–6, C10LE and C12LE and their hydrochlorides and methiodides. S. aureus 1199B was cultured overnight from a single CFU and reduced to OD600 = 0.55 before use. Samples were prepared in LB media to which was added either the norfloxacin control or the combination of norfloxacin and one of the compounds C10LE (1), C10LE•2HCl (2), C10LE•2MeI (3), C12LE (4), C12LE•2HCl (5), or C12LE•2MeI (6). Dimethylsulfoxide (DMSO) was used to solubilize the lariat ether derivative, when necessary, but its concentration was never allowed to exceed 0.5% (v/v) in all experiments. […] The absorbance of each sample (600 nm) was recorded every quarter hour for 24 h.
# [17] = MHII media, 90% growth inhibition, read-out: MIC K12 E. coli
# [18] = Staphylococcus aureus, pH 8.4, MHII, pH 8.4, read-out: MIC S. aureus, MHII pH 8.4
# [19] = MHII media, 90% growth inhibition
# T1 sequence (P0A0J7 whole entry): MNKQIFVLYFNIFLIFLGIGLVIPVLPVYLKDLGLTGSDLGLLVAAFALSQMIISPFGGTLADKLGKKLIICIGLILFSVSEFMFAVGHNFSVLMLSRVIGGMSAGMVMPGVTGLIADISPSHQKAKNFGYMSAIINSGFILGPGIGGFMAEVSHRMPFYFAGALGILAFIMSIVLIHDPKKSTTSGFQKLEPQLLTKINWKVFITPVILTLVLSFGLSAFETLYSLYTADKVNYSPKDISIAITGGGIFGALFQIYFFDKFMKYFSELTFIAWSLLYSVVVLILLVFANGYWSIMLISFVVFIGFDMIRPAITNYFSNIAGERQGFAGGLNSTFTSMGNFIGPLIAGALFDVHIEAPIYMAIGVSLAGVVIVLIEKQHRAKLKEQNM
smiles,measurement,setting,value
CCCCCCCCN1CCOCCOCCN(CCCCCCCC)CCOCCOCC1 [C8LE (7)],MIC,[1],206 µM
same,MIC,"[2]; read-out: MIC K12 E. coli, MHII media, 90% growth inhibition",100 µM
same,Minimum inhibitory concentration against DH5α E. coli,[3],>128 µM
same,Fold increase in potency of rifampicin against E. coli,[4],20 fold
"CCCCCCCCCC[N+]1(C)CCOCCOCC[N+](C)(CCCCCCCCCC)CCOCCOCC1 (centres unmarked) [C10LE•2MeI (3), N,N′-Di-n-decyl-4-13-diaza-18-crown-6 bis(methiodide)]",MIC,[1],24 µM
same,solubility at 2 h,"[5]; Mueller Hinton II broth, 37 °C, pH 7.3, plasma or biological fluid, kinetic from dmso stock, Mueller Hinton II, pH 7.3, 2 h at 37 °C, read-out: Solubility limit in MHII",64 µM
same,solubility at 2 h,"[5]; phosphate-buffered saline, 37 °C, aqueous buffer, kinetic from dmso stock, phosphate-buffered saline, 2 h at 37 °C, read-out: Solubility limit in PBS",≥ 128 µM
same,MIC,[2]; [17],16 µM
same,MIC,[6],32 µM
same,MIC,"[7]; Staphylococcus aureus, 1199B, read-out: MIC S. aureus 1199B, MHII media, 90% growth inhibition",1 to 2 µM
same,Change in MIC as the pH was increased from 6.4 to 8.4,[8],unchanged
same,MIC,"[8]; Staphylococcus aureus, MH + Ca2+, read-out: MIC S. aureus, MH + Ca^2+",16 µM
same,MIC,"[8]; Staphylococcus aureus, MH medium, read-out: MIC S. aureus, MH",2 µM
same,MIC,"[8]; Staphylococcus aureus, pH 6.4, MHII, pH 6.4, read-out: MIC S. aureus, MHII pH 6.4",2 µM
same,MIC,"[8]; Staphylococcus aureus, pH 7.4, MHII, pH 7.4, read-out: MIC S. aureus, MHII pH 7.4",2 µM
same,MIC,[8]; [18],2 µM
same,IC50,[9],36 µM
same,IC50,[10],53 µM
same,Potency as efflux pump inhibitor relative to reserpine,[11]; 3 at […] µM vs reserpine at 50 µg/mL (80 µM),approximately five times more potent
same,Membrane depolarization (DiBAC4(3) fluorescence),[12],greatest
same,PI penetration (membrane permeability),[13],good penetration
CCCCCCCCCCC[N+]1(C)CCOCCOCC[N+](C)(CCCCCCCCCCC)CCOCCOCC1 (centres unmarked) [C11LE•2MeI (8)],Channel formation in planar bilayer,[14],does not form stable channels
"CCCCCCCCCCCCN1CCOCCOCCN(CCCCCCCCCCCC)CCOCCOCC1 [C12LE (4), N,N′-Di-n-dodecyl-4-13-diaza-18-crown-6]",MIC,[1],> 128 µM
same,solubility at 2 h,"[5]; Mueller Hinton II, pH 7.3, 2 h at 37 °C, read-out: Solubility limit in MHII",16 µM
same,solubility at 2 h,"[5]; phosphate-buffered saline, 2 h at 37 °C, read-out: Solubility limit in PBS",16 µM
same,MIC,[2]; [17],> 128 µM
same,MIC,[6],> 64 µM
same,MIC Tet^R E. coli,[6]; [19],inactive
same,MIC S. aureus 1199B,[7]; [19],32 µM
same,MIC,"[8]; MHII, pH 6.4, read-out: MIC S. aureus, MHII pH 6.4",>16 µM
same,MIC,"[8]; MHII, pH 7.4, read-out: MIC S. aureus, MHII pH 7.4",>32 µM
same,Change in MIC as the pH was increased from 6.4 to 8.4,[8],changes in MIC were observed
same,MIC,[8]; [18],> 64 µM
same,Slope of C12LE aggregation (DLS particle size),[15],2.95
same,Efflux pump inhibition (increase in EthBr fluorescence),[11]; […] µM compound,most potent efflux pump inhibition
same,Membrane depolarization (DiBAC4(3) fluorescence),[12],failed to show any significant evidence of membrane depolarization
same,Effect on bacterial growth (growth curves),[16],growth effects were observed at ½ MIC and lower
same,melting point,,141 to 144 °C
